PMC3735939, “The low levels of eicosapentaenoic acid in rat brain phospholipids are maintained via multiple redundant mechanisms” (Journal of Lipid Research, 2013)
Several values for one entry are separate records, joined by “and”; a condition that tells them apart may be missing. Identical values can stand only once.

Columns and labels:
[1] = In vivo kinetics of FA incorporation and turnover in brain phospholipids (intravenous radiotracer infusion, kinetic model); parameters: species or system rat
Method: Twenty-four hours postsurgery, a second catheter (iv catheter 24 gauge/0.75 inch, Angiocath™; Becton Dickinson) was implanted into the tail vein where rats received either vehicle or 10 mg/kg of MEP. […] The radiotracers were infused for 5 min via the tail vein catheter at a rate of 0.223(1 + e^−19.2t) ml/min (t is infusion time in minutes) ([37]) which achieves a steady-state plasma radioactivity within 1 min ([18], [38]). […] During the 5 min infusion, blood samples were collected from the jugular vein at approximately 0, 0.25, 0.5, 0.75, 1.5, 3, 4, and 5 min while the unanesthetized rat was mobile in the infusion box with food and water. […] After 5 min, the rats were rapidly euthanized by head-focused high-energy microwave irradiation (13.5 kW for 1.6 s; Cober Electronics Inc., Stratford, CT). The radiotracer infusions continued until rats were euthanized. The brain was excised and cut sagittally. Both hemispheres were stored at −80°C for radioactive and biochemical analyses. Plasma was isolated from whole blood via microcentrifugation at 6,200 rpm (2,000 g) for 5 min and stored at −80°C.
The model for in vivo kinetics of brain FAs in rats has been previously described ([17], [18], [21], [23], [25], [37], [41]).
Because the infusion is 5 min, contributions of FA from de novo synthesis and esterified plasma FA are negligible ([18], [20], [23], [41]); thus only contributions from plasma unesterified FAs and acyl-CoA pools were considered in the calculation of λpalmitate, DHA, or EPA .

[2] = test system: mitochondrial FA β-oxidation; assay: Radioactivity in brain aqueous fraction (marker of β-oxidation) after 5 min intravenous 14C-tracer infusion; type: in vivo, rat; conditions: vehicle injection; 5 min iv infusion of tracer
Method: (§1) Twenty-four hours postsurgery, a second catheter (iv catheter 24 gauge/0.75 inch, Angiocath™; Becton Dickinson) was implanted into the tail vein where rats received either vehicle or 10 mg/kg of MEP. Ten minutes post injection of vehicle or MEP, the tail vein catheter was connected to a syringe containing radiolabeled ^14C-palmitate (n = 8), ^14C-DHA (n = 6), or ^14C-EPA (n = 7) attached to a computer-controlled variable speed pump (PHD 22/2000; Harvard Apparatus, Holliston, MA). […] Each rat received a dose of 76 μCi ^14C-palmitate, 76 μCi ^14C-DHA, or 78 μCi ^14C-EPA. […] The radiotracer infusions continued until rats were euthanized. The brain was excised and cut sagittally. Both hemispheres were stored at −80°C for radioactive and biochemical analyses. Plasma was isolated from whole blood via microcentrifugation at 6,200 rpm (2,000 g) for 5 min and stored at −80°C. Total lipids from one brain hemisphere and from plasma were extracted by the method of Folch, Lees, and Sloane Stanley ([39]). Isolation of various neutral lipid and phospholipid classes from the total lipid extract was previously described by Chen, Liu, and Bazinet ([6]).

[3] = cited from earlier work
[4] = cited from earlier work; remark: listed apart in the source
[5] = Identification of radiolabeled FAs in brain phospholipids by HPLC and LSC after 14C-EPA infusion; type: in vivo, rat; conditions: for percent of total radiolabeled FAs: brain total phospholipids;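 for radiolabeled FA composition: percent of radiolabeled FAs within each phospholipid class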
Method: as §1, with “([6]). FA methyl esters and radioactive acyl-CoA analysis were previously described by Chen, Liu, and Bazinet ([6]).” for “([6]).”

- FFA rate of turnover ([1]; ChoGpl, MEP): 90 ± 20 %/day
- JFA net incorporation rate from brain acyl-CoA ([1]; ChoGpl, MEP): 1,234 ± 344 nmol/g/day
- Jin net incorporation rate from plasma unesterified FA ([1]; ChoGpl, MEP): 4.3 ± 0.38 nmol/g/day
- FFA rate of turnover ([1]; ChoGpl, Vehicle): 150 ± 14 %/day
- JFA net incorporation rate from brain acyl-CoA ([1]; ChoGpl, Vehicle): 2,146 ± 225 nmol/g/day
- Jin net incorporation rate from plasma unesterified FA ([1]; ChoGpl, Vehicle): 5.2 ± 0.62 nmol/g/day
- FFA rate of turnover ([1]; EtnGpl, MEP): 37 ± 9.6 %/day
- JFA net incorporation rate from brain acyl-CoA ([1]; EtnGpl, MEP): 2,030 ± 492 nmol/g/day
- Jin net incorporation rate from plasma unesterified FA ([1]; EtnGpl, MEP): 7.2 ± 1.2 nmol/g/day
- FFA rate of turnover ([1]; EtnGpl, Vehicle): 55 ± 5.4 %/day
- JFA net incorporation rate from brain acyl-CoA ([1]; EtnGpl, Vehicle): 3,233 ± 184 nmol/g/day
- Jin net incorporation rate from plasma unesterified FA ([1]; EtnGpl, Vehicle): 7.9 ± 1.4 nmol/g/day
- FFA rate of turnover ([1]; PtdIns, MEP): 308 ± 105 %/day
- JFA net incorporation rate from brain acyl-CoA ([1]; PtdIns, MEP): 477 ± 106 nmol/g/day
- Jin net incorporation rate from plasma unesterified FA ([1]; PtdIns, MEP): 1.7 ± 0.3 nmol/g/day
- FFA rate of turnover ([1]; PtdIns, Vehicle): 458 ± 156 %/day
- JFA net incorporation rate from brain acyl-CoA ([1]; PtdIns, Vehicle): 688 ± 144 nmol/g/day
- Jin net incorporation rate from plasma unesterified FA ([1]; PtdIns, Vehicle): 1.8 ± 0.078 nmol/g/day
- FFA rate of turnover ([1]; PtdSer, MEP): 8.4 ± 3.1 %/day
- JFA net incorporation rate from brain acyl-CoA ([1]; PtdSer, MEP): 198 ± 79 nmol/g/day
- Jin net incorporation rate from plasma unesterified FA ([1]; PtdSer, MEP): 0.68 ± 0.11 nmol/g/day
- FFA rate of turnover ([1]; PtdSer, Vehicle): 9.2 ± 2.1 %/day
- JFA net incorporation rate from brain acyl-CoA ([1]; PtdSer, Vehicle): 237 ± 50 nmol/g/day
- Jin net incorporation rate from plasma unesterified FA ([1]; PtdSer, Vehicle): 0.56 ± 0.053 nmol/g/day
- FFA rate of turnover ([1]; Total PL, MEP): 51 ± 10 %/day
- JFA net incorporation rate from brain acyl-CoA ([1]; Total PL, MEP): 4,390 ± 988 nmol/g/day
- Jin net incorporation rate from plasma unesterified FA ([1]; Total PL, MEP): 16 ± 1.2 nmol/g/day
- FFA rate of turnover ([1]; Total PL, Vehicle): 75 %/day and 75 ± 7.7 %/day
- JFA net incorporation rate from brain acyl-CoA ([1]; Total PL, Vehicle): 7,259 ± 958 nmol/g/day
- Jin net incorporation rate from plasma unesterified FA ([1]; Total PL, Vehicle): 17 nmol/g/day and 17 ± 1.8 nmol/g/day
- Jin, percent lower than reported Jin ([1]; rat, in vivo): 89–91%
- fold difference in λ between DHA and EPA ([1]; rat, in vivo): 50 fold
- λ dilution factor ([1]; vehicle): 0.0024 ± 0.0003
- FFA into brain total phospholipids, fold higher than EPA ([1]; vehicle injection): 4 fold
- Jin into brain total phospholipids, fold higher than EPA ([1]; vehicle injection): 3 fold
- t1/2, fold lower than EPA ([1]; vehicle injection): 4 fold
- radioactivity of brain aqueous fraction [2]: 17 nCi/g brain
- radiolabeled FA composition ([5]; ChoGpl, MEP-treated rats): 4%
- radiolabeled FA composition ([5]; ChoGpl, vehicle-treated rats): 11%
- radiolabeled FA composition ([5]; EtnGpl, MEP-treated rats): 14%
- radiolabeled FA composition ([5]; EtnGpl, vehicle-treated rats): 29%
- percent of total radiolabeled FAs ([5]; MEP-treated rats): 3%
- percent of total radiolabeled FAs ([5]; vehicle-treated rats): 10%
SMILES: CC/C=C\C/C=C\C/C=C\C/C=C\C/C=C\C/C=C\CCC(=O)O [DHA, docosahexaenoic acid]
- Jout net rate of loss from brain phospholipids [3]: 58 to 257 nmol/g/day
- loss t1/2 from brain phospholipids [3]: 33 days
- rate of loss from brain phospholipids [3]: 2 % per day
- Jin, reported [4]: 150 to 190 nmol/g/day
